Our source for the IC50 values is US20210317092A1 (BAYER PHARMA AKTIENGESELLSCHAFT, priority 2016, published 2021).

One assay has as its target T1, human Bradykinin B1 receptor (Homo sapiens, UniProt P46663).
T1 construct: host or cells: CHO-K1
T1 sequence (P46663 1-353): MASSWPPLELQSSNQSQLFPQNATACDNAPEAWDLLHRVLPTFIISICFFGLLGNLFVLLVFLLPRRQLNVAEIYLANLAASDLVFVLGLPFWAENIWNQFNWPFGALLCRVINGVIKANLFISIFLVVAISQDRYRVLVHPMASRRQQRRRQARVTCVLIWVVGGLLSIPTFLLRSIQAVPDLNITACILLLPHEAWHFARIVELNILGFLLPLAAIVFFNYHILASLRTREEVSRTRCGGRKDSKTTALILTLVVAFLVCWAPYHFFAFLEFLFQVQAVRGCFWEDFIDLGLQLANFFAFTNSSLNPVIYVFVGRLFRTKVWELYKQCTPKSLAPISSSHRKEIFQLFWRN
As to the kind of experiment: Calcium flux Assay (FLIPR) with recombinant CHO-K1 cells expressing human Bradykinin B1 receptor, in presence (hB1 IC50) or absence (hB1 free IC50) of 0.1% BSA. Type of assay: cell-based. The conditions noted are these: in absence of 0.1% BSA, read-out: hB1 free IC50.
In the case of `O=C(Nc1ccc(-n2cc(C(F)(F)F)cn2)c(-c2nnn[nH]2)c1)C1(c2ccc(F)c(F)c2)CC1` [Example 351, 1-(3,4-Difluorophenyl)-N-{3-(1H-tetrazol-5-yl)-4-[4-(trifluoromethyl)-1H-pyrazol-1-yl]phenyl}cyclopro-panecarboxa-mide], the IC50 is 1.06 µM.

Turning to `O=C(Nc1ccc(-c2ccc(C(F)F)nc2)c(-c2nnn[nH]2)c1)C1(c2ccc(C(F)(F)F)cc2)CC1` [Example 270, N-{4-[6-(difluoromethyl)pyridin-3-yl]-3-(1H-tetrazol-5-yl)phenyl}-1-[4-(trifluoromethyl)phenyl]cyclopro-panecarboxamide], the IC50 turned out to be 0.0174 µM. `CCC1CCN(c2ccc(NC(=O)C3(c4ccc(C(F)(F)F)cc4F)CC3)cc2-c2nnn[nH]2)C1=O` (centres unmarked) [Example 408, N-[4-(3-ethyl-2-oxopyrrolidin-1-yl)-3-(1H-tetrazol-5-yl)phenyl]-1-[2-fluoro-4-(trifluoromethyl)phenyl]cyclopro-panecarboxamide]: the IC50 is 0.131 µM.

On to `CS(=O)(=O)c1cncc(-c2ccc(NC(=O)C3(c4cccc(Cl)c4)CC3)cc2-c2nnn[nH]2)c1` [Example 319, 1-(3-Chlorophenyl)-N-{4-[5-(methylsulfonyl)pyridin-3-yl]-3-(1H-tetrazol-5-yl)phenyl}cyclopro-panecarboxa-mide], for which the IC50 amounted to 0.436 µM.

In the case of `CS(=O)(=O)Nc1ccc(-c2ccc(NC(=O)C3(c4cccc(Cl)c4)CC3)cc2-c2nnn[nH]2)cc1` [Example 331, 1-(3-chloropehnyl)-N-{4′-[(methylsulfonyl)amino]-2-(1H-tetrazol-5-yl)biphenyl-4-yl}cyclopropane carboxamide], the IC50 came out at 0.162 µM.

Turning to `CO[C@H]1CC[C@@H](c2ccc(NC(=O)C3(c4cccc(Cl)c4F)CC3)cc2-c2nnn[nH]2)CC1` [Example 189, 1-(3-chloro-2-fluorophenyl)-N-[4-(cis-4-methoxy-cyclohexyl)-3-(1H-tetrazol-5-yl)phenyl] cyclopropane-carboxamide], the IC50 was determined as 2.35 µM. For the molecule `O=C(Nc1ccc(-c2ccc(C(F)(F)F)nc2)c(-c2nnn[nH]2)c1)C1(c2ccc(C(F)(F)F)cc2Cl)CC1` [Example 292, 1-[2-chloro-4-(trifluoromethyl)phenyl]-N-{3-(1H-tetrazol-5-yl)-4-[6-(trifluoromethyl)pyridin-3-yl]phenyl}cyclopro-panecarboxa-mide], the IC50 stood at 0.00785 µM. Still for that read-out and setting: the result for “1-(3- chlorophenyl)- N-[3-(1H- tetrazol-5-yl)- 6′- (trifluoromethyl)- 2,3′-bipyridin- 5- yl]cyclopropane carboxamide [Example 217]” reads 0.516 µM. As to `O=C(Nc1ccc(-n2cc(Cl)cn2)c(-c2nnn[nH]2)c1)C1(c2ccc(OC(F)(F)F)cc2F)CC1` [Example 395, N-[4-(4-chloro-1H-pyrazol-1-yl)-3-(1H-tetrazol-5-yl)phenyl]-1-[2-fluoro-4-(trifluoromethoxy)phenyl]cyclo-propanecarboxa-mide], the IC50 is 0.0162 µM. Turning to `CCC(F)(F)c1ccc(-c2ccc(NC(=O)C3(c4cccc(Cl)c4)CC3)cc2-c2nnn[nH]2)cn1` [Example 283, 1-(3-chlorophenyl)-N-{4-[6-(1,1-difluoropropyl)py-ridin-3-yl]-3-(1H-tetrazol-5-yl)phenyl}cyclopro-panecarboxa-mide], the IC50 was 0.00819 µM. Regarding `Cc1ccc(C2(C(=O)Nc3ccc(-n4ccc(C(C)(C)C)n4)c(-c4nnn[nH]4)c3)CC2)c(F)c1` [Example 379, N-[4-(3-tert-Butyl-1H-pyrazol-1-yl)-3-(1H-tetrazol-5-yl)phenyl]-1-(2-fluoro-4-methylphenyl)cy-clopropanecar-boxamide], the IC50 came to 0.257 µM. For `COc1ccc(-c2ccc(NC(=O)C3(c4ccc(F)c(F)c4)CC3)cc2-c2nnn[nH]2)cc1OC` [Example 25, 1-(3,4-difluorophenyl)-N-[3′,4′-dimethoxy-2-(1H-tetrazol-5-yl)biphenyl-4-yl]cyclopropane-carboxamide], the IC50 stood at 0.0259 µM.

For `CC(C)(C)c1cn(-c2ccc(NC(=O)C3(c4ccc(C(F)(F)F)cc4F)CC3)cc2-c2nnn[nH]2)cn1` [Example 403, N-[4-(4-tert-butyl-1H-imidazol-1-yl)-3-(1H-tetrazol-5-yl)phenyl]-1-[2-fluoro-4-(trifluoromethyl)phenyl]cyclopro-panecarboxamide], the IC50 was 0.0206 µM.

As to `CCc1cnn(-c2ccc(NC(=O)C3(c4ccc(OC(F)(F)F)cc4F)CC3)cc2-c2nnn[nH]2)c1` [Example 377, N-[4-(4-ethyl-1H-pyrazol-1-yl)-3-(1H-tetrazol-5-yl)phenyl]-1-[2-fluoro-4-(trifluoromethoxy)phenyl]cyclo-propanecarboxa-mide], the IC50 turned out to be 0.00657 µM.

Take `Cc1ccc(C2(C(=O)Nc3ccc(-n4ccc(C(F)(F)F)n4)c(-c4nnn[nH]4)c3)CC2)c(F)c1` [Example 366, 1-(2-Fluoro-4-methylphenyl)-N-{3-(1H-tetrazol-5-yl)-4-[3-(trifluoromethyl)-1H-pyrazol-1-yl]phenyl}cyclopro-panecarboxa-mide]: the IC50 was determined as 0.0942 µM.

The assay is the same for the next values; noted with them: in presence of 0.1% BSA, read-out: hB1 IC50.
As to `CCOc1ccc(-c2cc(C)c(NC(=O)C3(c4cccc(Cl)c4)CC3)cc2-c2nnn[nH]2)cc1OC` [Example 249, 1-(3-Chlorophenyl)-N-[4′-ethoxy-3′-methoxy-5-methyl-2-(1H-tetrazol-5-yl)biphenyl-4-yl]cyclopropane carboxamide], the IC50 stood at 1.76 µM.

Take `CCOc1ncc(-c2ccc(NC(=O)C3(c4ccc(C(F)(F)F)cc4)CC3)cc2-c2nnn[nH]2)cc1F` [Example 164, N-[4-(6-ethoxy-5-fluoropyridin-3-yl)-3-(1H-tetrazol-5-yl)phenyl]-1-[4-(trifluoromethyl)phenyl] cyclopropane-carboxamide]: the IC50 worked out at 0.0145 µM. The same measure, in the same setting: to `CS(=O)(=O)c1cncc(-c2ccc(NC(=O)C3(c4cccc(Cl)c4)CC3)cc2-c2nnn[nH]2)c1` [Example 319, 1-(3-Chlorophenyl)-N-{4-[5-(methylsulfonyl)pyridin-3-yl]-3-(1H-tetrazol-5-yl)phenyl}cyclopro-panecarboxa-mide] belongs 0.521 µM; to `CCc1cccc(C2(C(=O)Nc3ccc(-c4ccc(OC)c(OC)c4)c(-c4nnn[nH]4)c3)CC2)c1` [Example 40, N-[3′,4′-dimethoxy-2-(1H-tetrazol-5-yl)biphenyl-4-yl]-1-(3-ethylphenyl) cyclopropane-carboxamide], 0.0314 µM; to `COc1ccc(-c2ccc(NC(=O)C3(c4ccccc4OC(F)(F)F)CC3)cc2-c2nnn[nH]2)cc1OC` [Example 4, N-[3′,4′-dimethoxy-2-(1H-tetrazol-5-yl)biphenyl-4-yl]-1-[2-(trifluoro-methoxy)phenyl] cyclopropane-carboxamide], 0.158 µM. The same measure, in the same setting: the result for `CS(=O)(=O)Nc1ccc(-c2ccc(NC(=O)C3(c4cccc(Cl)c4)CC3)cc2-c2nnn[nH]2)cc1` [Example 331, 1-(3-chloropehnyl)-N-{4′-[(methylsulfonyl)amino]-2-(1H-tetrazol-5-yl)biphenyl-4-yl}cyclopropane carboxamide] reads 0.206 µM; that for `COc1ccc(-c2cc(F)c(NC(=O)C3(c4ccc(Cl)cc4F)CC3)cc2-c2nnn[nH]2)cc1C` [Example 231, 1-(4-Chloro-2-fluorophenyl)-N-[5-fluoro-4′-methoxy-3′-methyl-2-(1H-tetrazol-5-yl)biphenyl-4-yl]cyclopropane carboxamide], 2.2 µM.

For `COCc1ccc(-c2ccc(NC(=O)C3(c4cccc(Cl)c4)CC3)cc2-c2nnn[nH]2)cc1C` [Example 124, 1-(3-chlorophenyl)-N-[4′-(methoxymethyl)-3′-methyl-2-(1H-tetrazol-5-yl)biphenyl-4-yl]cyclopropane carboxamide], the IC50 amounted to 0.0383 µM. For `COc1ccc(C2(C(=O)Nc3ccc(-c4ccc(OC)c(OC)c4)c(-c4nnn[nH]4)c3)CC2)cc1` [Example 47, N-[3′,4′-dimethoxy-2-(1H-tetrazol-5-yl)biphenyl-4-yl]-1-(4-methoxyphenyl) cyclopropane-carboxamide], the IC50 amounted to 0.18 µM. Regarding `COc1ccc(-c2ccc(NC(=O)C3(c4cccc(Cl)c4)CC3)cc2-c2nnn[nH]2)cc1F` [Example 315, 1-(3-chlorophenyl)-N-[3′-fluoro-4′-methoxy-2-(1H-tetrazol-5-yl)biphenyl-4-yl]cyclopropane-carboxamide], the IC50 turned out to be 0.235 µM. As to `COc1ccc(-c2ccc(NC(=O)C3(c4ccccn4)CC3)cc2-c2nnn[nH]2)cc1OC` [Example 9], the IC50 was determined as 0.66 µM. In the case of `COc1ccc(-c2ccc(NC(=O)C3(c4ccc(F)c(F)c4)CC3)cc2-c2nnn[nH]2)cc1OC` [Example 25, 1-(3,4-difluorophenyl)-N-[3′,4′-dimethoxy-2-(1H-tetrazol-5-yl)biphenyl-4-yl]cyclopropane-carboxamide], the IC50 is 0.0574 µM.

Consider `CN(C)c1ccc(-c2ccc(NC(=O)C3(c4cccc(Cl)c4)CC3)cc2-c2nnn[nH]2)cn1` [Example 169, 1-(3-chlorophenyl)-N-{4-[6-(dimethylamino)pyridin-3-yl]-3-(1H-tetrazol-5-yl)phenyl} cyclopropane-carboxamide], for which the IC50 stood at 0.117 µM. On the same count and under the same terms, the result for `COc1ccc(-c2ccc(NC(=O)C3(c4ccc(C)cc4)CC3)cc2-c2nnn[nH]2)cc1` [Example 115, N-[4′-methoxy-2-(1H-tetrazol-5-yl)biphenyl-4-yl]-1-(4-methylphenyl) cyclopropane-carboxamide] reads 0.169 µM; that for `COc1ccc(-c2ccc(NC(=O)C3(c4ccccc4)CC3)cc2-c2nnn[nH]2)cc1OC` [Example 35, N-[3′,4′-dimethoxy-2-(1H-tetrazol-5-yl)biphenyl-4-yl]-1-phenylcyclo-propane-carboxamide], 0.213 µM; that for `COc1cncc(-c2ccc(NC(=O)C3(c4cccc(C(F)(F)F)c4)CC3)cc2-c2nnn[nH]2)c1` [Example 152, N-[4-(5-methoxypyridin-3-yl)-3-(1H-tetrazol-5-yl)phenyl]-1-[3-(trifluoromethyl)phenyl] cyclopropane-carboxamide], 0.0235 µM. Still for that read-out and setting: the result for `CCOc1ccc(-c2cc(F)c(NC(=O)C3(c4cccc(Cl)c4)CC3)cc2-c2nnn[nH]2)cn1` [Example 342, 1-(3-chlorophenyl)-N-[4-(6-ethoxypyridin-3-yl)-2-fluoro-5-(1H-tetrazol-5-yl)phenyl]cyclopro-panecarboxa-mide] reads 1.77 µM.
